According to patent US10745390B2, “Small molecule activators of mitochondrial function” (THE TRUSTEES OF THE UNIVERSITY OF PENNSYLVANIA, priority 2008, dated 2020):

Test system: I154F FA cells
Assay: I154F frataxin point-mutation model, rescue from FAC and/or BSO
Format: cell-based, murine
Description: 2. Preliminary testing in the I154F frataxin point-mutation model determines whether test compounds can rescue I154F FA cells from lethal concentrations of FAC and/or BSO. Among the mammalian-cell models that have, or recapitulate, the genetic defects underlying FA, by far the most robust (and best validated) is the I154F murine frataxin point-mutation model developed by Puccio and colleagues (Calmels, N. et al.), the first cellular model based on frataxin missense mutations that reproduces spontaneously the defects associated with Friedreich ataxia (PLoS One 4, e6379 (2009)). […] This model is also extremely stable, with phenotypes unchanged after months of continuous culture. In contrast, the mutations in available primary human FA fibroblasts are GAA repeat expansions in the first intron of the FXN gene; occasional cells in which these expansions contract have a growth advantage and take over the culture, diluting the phenotype and increasing variance in various measures of compound efficacy.
In another screen, testing was conducted in the I154F point-mutation model as described above, to determine whether test compounds could rescue I154F FA cells from lethal or sublethal concentrations of FAC and/or BSO. Effective in this screen were the following compounds: N-[(5-chloro-8-hydroxyquinolin-7-yl)-thiophen-2-ylmethyl]-3-phenylpropanamide, N-[(5-chloro-8-hydroxyquinolin-7-yl)-thiophen-2-ylmethyl]pentanamide, N-[(5-chloro-8-hydroxyquinolin-7-yl)-furan-2-ylmethyl]-3-phenylpropanamide, N-[(5-chloro-8-hydroxyquinolin-7-yl)-furan-2-ylmethyl]propanamide, N-[(5-chloro-8-hydroxyquinolin-7-yl)-furan-2-ylmethyl]pentanamide, N-[(5-chloro-8-hydroxyquinolin-7-yl)-tolyl]-3-phenylpropanamide, N-[(5-chloro-8-hydroxyquinolin-7-yl)-(3-methoxyphenyl)methyl]-3-phenylpropanamide, N-[(5-chloro-8-hydroxyquinolin-7-yl)-(4-dimethylaminophenyl)methyl]-3-phenylpropanamide, N-[(5-chloro-8-hydroxyquinolin-7-yl)-(4-chlorophenyl)methyl]-3-phenylpropanamide, N-[(5-chloro-8-hydroxyquinolin-7-yl)-(3-chlorophenyl)methyl]-3-phenylpropanamide, N-[(5-chloro-8-hydroxyquinolin-7-yl)-(2-chlorophenyl)methyl]-3-phenylpropanamide, N-[(5-chloro-8-hydroxyquinolin-7-yl)-(3,4-dimethoxyphenyl)methyl]-3-phenylpropanamide, N-[(5-chloro-8-hydroxyquinolin-7-yl)-(2,4-dimethoxyphenyl)methyl]-3-phenylpropanamide, N-[(5-chloro-8-hydroxyquinolin-7-yl)-(3,4,5-trimethoxyphenyl)methyl]-3-phenylpropanamide, N-[(5-chloro-8-hydroxyquinolin-7-yl)-(2-bromophenyl)methyl]-3-phenylpropanamide, N-[(5-chloro-8-hydroxyquinolin-7-yl)-p-tolyl-methyl]-3-phenylpropanamide, N-[(5-chloro-8-hydroxyquinolin-7-yl)-(2-hydroxyphenyl)methyl]-3-phenylpropanamide (1a-18), and N-[(5-chloro-8-hydroxyquinolin-7-yl)-(4-methoxyphenyl)methyl]-3-phenylpropanamide.

Row | Structure (SMILES) | rescue of I154F FA cells from lethal or sublethal concentrations of FAC and/or BSO
1 | COc1cc(C(NC(=O)CCc2ccccc2)c2cc(Cl)c3cccnc3c2O)cc(OC)c1OC (stereo not drawn) [N-[(5-chloro-8-hydroxyquinolin-7-yl)-(3,4,5-trimethoxyphenyl)methyl]-3-phenylpropanamide] | Effective
2 | O=C(CCc1ccccc1)NC(c1ccco1)c1cc(Cl)c2cccnc2c1O (stereo not drawn) [N-[(5-chloro-8-hydroxyquinolin-7-yl)-furan-2-ylmethyl]-3-phenylpropanamide] | Effective
3 | COc1ccc(C(NC(=O)CCc2ccccc2)c2cc(Cl)c3cccnc3c2O)cc1 (stereo not drawn) [N-[(5-chloro-8-hydroxyquinolin-7-yl)-(4-methoxyphenyl)methyl]-3-phenylpropanamide] | Effective
4 | O=C(CCc1ccccc1)NC(c1ccccc1Cl)c1cc(Cl)c2cccnc2c1O (stereo not drawn) [N-[(5-chloro-8-hydroxyquinolin-7-yl)-(2-chlorophenyl)methyl]-3-phenylpropanamide] | Effective
5 | COc1ccc(C(NC(=O)CCc2ccccc2)c2cc(Cl)c3cccnc3c2O)cc1OC (stereo not drawn) [N-[(5-chloro-8-hydroxyquinolin-7-yl)-(3,4-dimethoxyphenyl)methyl]-3-phenylpropanamide] | Effective
6 | O=C(CCc1ccccc1)NC(c1ccc(Cl)cc1)c1cc(Cl)c2cccnc2c1O (stereo not drawn) [N-[(5-chloro-8-hydroxyquinolin-7-yl)-(4-chlorophenyl)methyl]-3-phenylpropanamide] | Effective
7 | CCC(=O)NC(c1ccco1)c1cc(Cl)c2cccnc2c1O (stereo not drawn) [N-[(5-chloro-8-hydroxyquinolin-7-yl)-furan-2-ylmethyl]propanamide] | Effective
8 | COc1ccc(C(NC(=O)CCc2ccccc2)c2cc(Cl)c3cccnc3c2O)c(OC)c1 (stereo not drawn) [N-[(5-chloro-8-hydroxyquinolin-7-yl)-(2,4-dimethoxyphenyl)methyl]-3-phenylpropanamide] | Effective
9 | CN(C)c1ccc(C(NC(=O)CCc2ccccc2)c2cc(Cl)c3cccnc3c2O)cc1 (stereo not drawn) [N-[(5-chloro-8-hydroxyquinolin-7-yl)-(4-dimethylaminophenyl)methyl]-3-phenylpropanamide] | Effective
10 | CCCCC(=O)NC(c1ccco1)c1cc(Cl)c2cccnc2c1O (stereo not drawn) [N-[(5-chloro-8-hydroxyquinolin-7-yl)-furan-2-ylmethyl]pentanamide] | Effective
11 | O=C(CCc1ccccc1)NC(c1ccccc1O)c1cc(Cl)c2cccnc2c1O (stereo not drawn) [N-[(5-chloro-8-hydroxyquinolin-7-yl)-(2-hydroxyphenyl)methyl]-3-phenylpropanamide] | Effective
12 | COc1cccc(C(NC(=O)CCc2ccccc2)c2cc(Cl)c3cccnc3c2O)c1 (stereo not drawn) [N-[(5-chloro-8-hydroxyquinolin-7-yl)-(3-methoxyphenyl)methyl]-3-phenylpropanamide] | Effective
13 | Cc1ccc(C(NC(=O)CCc2ccccc2)c2cc(Cl)c3cccnc3c2O)cc1 (stereo not drawn) [N-[(5-chloro-8-hydroxyquinolin-7-yl)-p-tolyl-methyl]-3-phenylpropanamide] | Effective
14 | O=C(CCc1ccccc1)NC(c1ccccc1Br)c1cc(Cl)c2cccnc2c1O (stereo not drawn) [N-[(5-chloro-8-hydroxyquinolin-7-yl)-(2-bromophenyl)methyl]-3-phenylpropanamide] | Effective
15 | O=C(CCc1ccccc1)NC(c1cccc(Cl)c1)c1cc(Cl)c2cccnc2c1O (stereo not drawn) [N-[(5-chloro-8-hydroxyquinolin-7-yl)-(3-chlorophenyl)methyl]-3-phenylpropanamide] | Effective
